Assay results reported in ChEMBL document CHEMBL1201862, “PubChem BioAssay data set” (2004).
Active and inactive are the calls of the source.

Assays:
Coagulation factor XII = molecular target: T1, Coagulation factor XII (Homo sapiens, UniProt P00748); experiment: Factor XIIa Dose Response Confirmation from Single Well HTS. [Related pubchem assays (depositor defined):AID701]; type: functional
T1 sequence (P00748 whole entry): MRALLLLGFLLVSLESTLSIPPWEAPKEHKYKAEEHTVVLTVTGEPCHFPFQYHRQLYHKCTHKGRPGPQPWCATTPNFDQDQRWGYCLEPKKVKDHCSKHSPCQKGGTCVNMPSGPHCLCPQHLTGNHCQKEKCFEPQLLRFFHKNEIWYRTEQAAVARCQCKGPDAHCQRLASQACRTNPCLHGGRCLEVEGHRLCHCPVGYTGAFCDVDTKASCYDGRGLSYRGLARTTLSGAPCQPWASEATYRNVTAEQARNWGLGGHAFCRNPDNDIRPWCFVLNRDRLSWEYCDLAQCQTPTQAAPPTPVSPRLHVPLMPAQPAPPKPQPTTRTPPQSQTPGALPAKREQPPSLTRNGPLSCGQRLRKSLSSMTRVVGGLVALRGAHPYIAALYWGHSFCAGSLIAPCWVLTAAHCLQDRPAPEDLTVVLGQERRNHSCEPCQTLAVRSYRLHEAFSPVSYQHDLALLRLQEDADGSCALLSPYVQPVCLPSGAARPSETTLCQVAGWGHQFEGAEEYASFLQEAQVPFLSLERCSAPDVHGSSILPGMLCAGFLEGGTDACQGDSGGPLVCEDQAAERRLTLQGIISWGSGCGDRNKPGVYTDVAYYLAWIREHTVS

Phosphomannomutase 2 = Phosphomannomutase 2 (Homo sapiens, UniProt O15305); experiment: Counter screen SAR assay for PMM2 inhibitors via a fluorescence intensity assay. [Related pubchem assays (depositor defined):AID1545, AID1574]
[1] = molecular target: Phosphoethanolamine/phosphocholine phosphatase (Homo sapiens, UniProt Q8TCT1); experiment: SAR assay for compounds that inhibit PHOSPHO1. [Related pubchem assays (depositor defined):AID1545, AID1565, AID1574]
[2] = molecular target: Intestinal-type alkaline phosphatase (Homo sapiens, UniProt P09923); experiment: human intestinal alkaline phosphatase activators, dose response, biochemical, luminescence, uHTS hits (AID 463120); type: functional
[3] = molecular target: T2, Peroxisome proliferator-activated receptor gamma (Homo sapiens, UniProt P37231); experiment: PPARg ligand-binding domain binders, dose response, PPARg partial agonist project, biochemical, fluorescence polarization, PolarScreen (AID 504453)
T2 sequence (P37231 whole entry): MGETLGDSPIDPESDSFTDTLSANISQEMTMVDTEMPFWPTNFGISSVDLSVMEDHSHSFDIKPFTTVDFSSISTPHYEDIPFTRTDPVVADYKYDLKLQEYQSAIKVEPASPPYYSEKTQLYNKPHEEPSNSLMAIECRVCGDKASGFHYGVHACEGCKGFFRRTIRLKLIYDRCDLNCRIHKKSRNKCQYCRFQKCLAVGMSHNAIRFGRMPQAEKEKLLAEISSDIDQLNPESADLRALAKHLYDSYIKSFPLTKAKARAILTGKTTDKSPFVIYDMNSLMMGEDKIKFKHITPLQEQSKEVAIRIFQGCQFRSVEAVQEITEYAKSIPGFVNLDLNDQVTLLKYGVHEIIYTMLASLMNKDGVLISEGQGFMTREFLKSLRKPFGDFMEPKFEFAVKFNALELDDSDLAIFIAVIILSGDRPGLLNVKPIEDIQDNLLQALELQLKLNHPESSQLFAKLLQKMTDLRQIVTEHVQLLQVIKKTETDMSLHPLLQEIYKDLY

[4] = molecular target: T2, Peroxisome proliferator-activated receptor gamma; experiment: PPARg partial agonists, dose response, cell-based, luminescence, assay provider (AID 504447); type: functional
[5] = molecular target: T2, Peroxisome proliferator-activated receptor gamma; experiment: PPARg ligand-binding domain binders, dose response, PPARg partial agonist project, biochemical, TR-FRET, LanthaScreen (AID 504446)
[6] = cytotoxicity in NIH/3T3 mouse fibroblasts, dose response, cytotoxicity control, cell-based, mouse embryonic fibroblasts, dry powder, set 2 (AID 493247); type: functional; conditions: Fibroblast
[7] = inhibitors of Trypanosoma cruzi host-cell infection, confirmation, beta-gal luminescence, NIH3T3 host cells (AID 2630); type: functional, cell-based; conditions: Mus musculus
[8] = T. cruzi intracellular amastigote growth inhibition, dose response, imaging, CA-I/72 strain, bovine embryo skeletal muscle, dry powder (AID 651885); type: functional, cell-based
[9] = T. cruzi growth inhibition in host cells, dose response, cell-based, plate reader, dry powder, set 2 (AID 652275); type: functional
[10] = Luminescence Cell-Based Secondary HTS screen to identify cytotoxic compounds of NIH3T3 cells. [Related pubchem assays: 1885, 1968 ]; type: functional
Trypanosoma cruzi = experiment: growth inhibition of intracellular Trypanosoma cruzi, dose response, cell-based, plate reader, dry powder, set 3 (AID 493197); type: functional
[11] = Luminescence Cell-Based/Microorganism Confirmation at Dose of Inhibitors of Trypanosoma cruzi Infection. [Related pubchem assays: 1885, 1968 ]; type: functional
[12] = inhibitors of intracellular T. cruzi replication, confirmation, NIH3T3 host cells, beta-gal luminescence (AID 2044); type: functional, cell-based;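 also: intracellular parasites grown in NIH/3T3 mouse fibroblasts as host cells; luminescent beta-galactosidase reporter signal from transgenic T. cruzi replicating inside host cells; inhibitors lower the luminescence signal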
[13] = cytotoxicity toward NIH3T3 fibroblasts, dose response, counter-screen, cell-based, ATP luminescence, mouse fibroblasts (AID 2010); type: functional;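 also: cells exposed to compound for about 90 hours before reading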
[14] = molecular target: T3, Kappa-type opioid receptor (Homo sapiens, UniProt P41145); experiment: kappa opioid receptor blockers, cell-based, luminescence, beta-arrestin, SAR follow-up (AID 2285); type: functional
Mu-type opioid receptor [15] = molecular target: T4, Mu-type opioid receptor (Homo sapiens, UniProt P35372); experiment: MOR agonists by imaging, SAR follow-up, image-based (AID 2352); type: functional
[16] = molecular target: T3, Kappa-type opioid receptor; experiment: KOR antagonists by imaging, SAR follow-up, image-based (AID 2348); type: functional
[17] = molecular target: T5, Delta-type opioid receptor (Homo sapiens, UniProt P41143); experiment: DOR agonists, SAR follow-up, image-based (AID 2370); type: functional
[18] = molecular target: T5, Delta-type opioid receptor; experiment: DOR antagonists, SAR follow-up, image-based (AID 2357); type: functional
[19] = molecular target: T3, Kappa-type opioid receptor; experiment: KOR agonist analogs, imaging readout, SAR follow-up, image-based (AID 2359); type: functional
Mu-type opioid receptor [20] = molecular target: T4, Mu-type opioid receptor; experiment: MOR antagonists, SAR follow-up, image-based (AID 2420); type: functional;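 also: compounds added before stimulation of receptor with agonist DAMGO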
[21] = molecular target: Dual specificity protein phosphatase 3 (Homo sapiens, UniProt P51452); experiment: SAR VHR1 Fluorescent Assay for In Vitro dose response studies Set 2. [Related pubchem assays (depositor defined):AID1654, AID1661, AID1878]; type: functional
[22] = molecular target: Tyrosine-protein phosphatase non-receptor type 7 (Homo sapiens, UniProt P35236); experiment: SAR analysis of chemical inhibitors of HePTP using a Fluorescent assay - Set 2. [Related pubchem assays (depositor defined):AID1059, AID1077, AID1661, AID2085, AID521]; type: functional
[23] = molecular target: T3, Kappa-type opioid receptor; experiment: SAR analysis of small molecule agonists of the kappa opioid receptor via a luminescent beta-arrestin assay - Set 3. [Related pubchem assays (depositor defined):AID1777, AID1785, AID1786, AID1966, AID2133, AID2136, AID2284, AID2500]; type: functional
[24] = molecular target: Signal transducer and activator of transcription 3 (Homo sapiens, UniProt P40763); experiment: STAT3 inhibitors, late-stage profile, late-stage follow-up, cell-based, STAT1 panel, qPCR, cytotoxicity, panel member STAT3 Inhibition (AID 2078)
[25] = molecular target: Signal transducer and activator of transcription 1-alpha/beta (Homo sapiens, UniProt P42224); experiment: STAT3 inhibitors, late-stage profile, late-stage follow-up, cell-based, STAT1 panel, qPCR, cytotoxicity, panel member STAT1 Inhibition (AID 2078)
HEK293 [26] = experiment: cells; type: functional, cell-based; conditions: Homo sapiens
HEK293 [27] = experiment: NOD2 signaling inhibitors in MDP-stimulated cells, cell-based, uHTS, luminescence (AID 2001); type: functional; conditions: Homo sapiens
HEK293 [28] = experiment: cells; type: functional, cell-based; conditions: Homo sapiens; remark: listed apart in the source
cells [29] = type: functional, cell-based
cells [30] = type: functional, cell-based; remark: listed apart in the source
HEK293 [31] = experiment: NOD1 signaling inhibitors, primary screen, cell-based, luminescence, uHTS (AID 1578); type: functional; conditions: Homo sapiens
[32] = molecular target: Nucleotide-binding oligomerization domain-containing protein 2 (Homo sapiens, UniProt Q9HC29); experiment: NOD2 signaling inhibitors, cell-based, luminescence, uHTS, HEK293 (AID 1566); type: functional
HEK293 [33] = experiment: cells; type: functional, cell-based; conditions: Homo sapiens; remark: listed apart in the source
[34] = molecular target: DNA damage-inducible transcript 3 protein (Mus musculus, UniProt P35639); type: functional, Cricetulus griseus
[35] = molecular target: G-protein coupled receptor 55 (Homo sapiens, UniProt Q9Y2T6); experiment: GPR55 antagonists blocking LPI-driven arrestin recruitment, primary screen, imaging, U2OS, beta-arrestin-GFP, LPI agonist (AID 2013); type: functional;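 also: antagonist potency measured as reduced agonist-driven arrestin aggregation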
[36] = fluorescence interference artefacts, compound only, dose response, artefact control for cardiac thin filament activator project, biochemical, no RTF in test wells (AID 504697)
[37] = Luminescence Cell-Based Dose Response HTS to Identify Activators of Luciferase Translation or Activity in H4 […] Cells. [Related pubchem assays: 1829 (Project Summary), 1814 (Primary HTS)]; type: functional
Troponin, cardiac muscle = Troponin, cardiac muscle (Homo sapiens, UniProt P19429+P45379+P63316); experiment: Fluorescence-based biochemical high throughput dose response assay for activators of the calcium sensitivity of cardiac Regulated Thin Filaments (RTF). [Related pubchem assays (depositor defined):AID493008, AID493018, AID504382, AID504383]; type: protein-complex assay

For `CC(/N=c1\ccccn1C(=O)Nc1cccc(C(F)(F)F)c1)c1ccco1` (stereo unspecified), the IC50 (Coagulation factor XII) was > 50 µM (inactive).
With `CC(C)(C)c1ccc(-n2sc3ccccc3c2=O)cc1` the IC50 (Phosphomannomutase 2) was 82.5 µM (active) and the IC50 [1] was 54.3 µM (inactive).
With `Cc1ccc(Cl)cc1NC(=O)C(=O)N/N=C/c1ccc2c(c1)OCO2` the EC50 [2] was 29.6 µM (active).
For `Cc1ccc2nc(N3C(=O)C(O)=C(C(=O)c4ccc(C)o4)C3c3ccco3)sc2c1` (stereo unspecified), the IC50 [3] was 22 µM (active), the EC50 [4] was 18 µM (active) and the IC50 [5] was 2.6 µM (active).
In the case of `COc1ccc(CCN(C)C(=O)C2CCCN(Cc3ccc(OC)c(OC)c3)C2)cc1OC` (stereo unspecified), the AC50 [6] is reported as 80.4 µM (active), the EC50 [7] is reported as 0.192 µM (active) and the IC50 [8] is reported as > 20 µM (inactive). The AC50 [9] was 0.252 µM (active), the EC50 [10] was > 195 µM (not active) and the AC50 (Trypanosoma cruzi) was 0.26 µM (active). The EC50 [11] was 0.192 µM (active), the EC50 [12] was < 0.1 µM (active) and the EC50 [13] was > 60 µM (not active).
With `O=C(NC(NC(=S)Nc1ccccc1)C(Cl)(Cl)Cl)OCc1ccccc1` (stereo unspecified) the IC50 [14] was > 10 µM (inactive), the EC50 (Mu-type opioid receptor [15]) was > 32 µM (inactive) and the IC50 [16] was 17.6 µM (inactive). The EC50 [17] was > 32 µM (inactive), the IC50 [18] was > 32 µM (inactive) and the EC50 [19] was > 32 µM (inactive). The IC50 (Mu-type opioid receptor [20]) was > 32 µM (inactive), the IC50 [21] was > 100 µM (inactive) and the IC50 [22] was > 100 µM (inactive).
In the case of `CCCCN(Cc1cc2cc(Cl)ccc2[nH]c1=O)C(=O)c1ccccc1`, the EC50 [23] is reported as > 20 µM (inactive).
In the case of `Fc1ccc(CC2CCN(c3ncnc4sccc34)CC2)cc1`, the IC50 [24] is reported as 2.54 µM (active) and the IC50 [25] is reported as > 55.7 µM (inactive).
In the case of `O=C(N/N=C/c1ccccn1)c1ccc(Cl)cc1`, the IC50 (HEK293 [26]) is reported as > 20 µM (inactive), the IC50 (HEK293 [27]) is reported as 7.14 µM (inactive) and the IC50 (HEK293 [28]) is reported as > 20 µM (inactive). For the same molecule, the EC50 (cells [29]) was > 350 µM (not active), the EC50 (cells [30]) was > 350 µM (not active) and the EC50 (HEK293 [31]) was > 20 µM (inactive). For the same molecule, the EC50 [32] was > 20 µM (inactive) and the IC50 (HEK293 [33]) was > 20 µM (inactive).
In the case of `CCOC(=O)c1c(CN2CCOCC2)n(-c2ccccc2)c2cc(Br)c(O)cc12.Cl`, the “Absolute IC50 (CHOP)” value [34] is reported as 10 µM.
In the case of `C=CCN1C(=O)/C(=C/Nc2ccc(Cc3ccncc3)cc2)C(=O)NC1=S`, the IC50 [35] is reported as 0.543 µM (active).
In the case of `N=c1oc2c3c4c(cc2cc1C(=O)Nc1ccccc1)CCCN4CCC3`, the EC50 [36] is reported as > 0.0109 µM (active), the EC50 [37] is reported as 8.27 µM (active) and the EC50 (Troponin, cardiac muscle) is reported as > 0.0109 µM (active).
